# Measured values taken from PubChem BioAssay (NCI).
#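 The compound was tested at five concentrations on cells cultured in 96-well plates, with a 48-hour exposure period. Here, GI50 denotes the concentration required for 50% inhibition of growth. Definition used: TGI = concentration required for complete inhibition of growth.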
# Tests used:
# Assay in all cases: DTP human tumour cell line panel, 48 h
# [1] = system: SK-MEL-2 melanoma
# [2] = system: IGROV1 ovarian
# [3] = system: NCI/ADR-RES ovarian
# [4] = system: SNB-19 CNS
# [5] = system: A549 NSCLC
# [6] = system: K-562 leukemia
# [7] = system: SF-268 CNS
# [8] = system: SK-MEL-5 melanoma
# [9] = system: NCI-H23 lung
# [10] = system: OVCAR-8 ovarian
SMILES,GI50 [1],TGI [1],GI50 [2],TGI [2],GI50 [3],TGI [3],GI50 [4],TGI [4],GI50 [5],TGI [5],GI50 [6],TGI [6],GI50 [7],TGI [7],TGI [8],TGI [9],TGI [10],GI50 [9],GI50 [10]
COc1ccc(-c2csc(NC(=O)N3CCN(c4cc5c(cc4F)c(=O)c(C(=O)O)cn5C4CC4)CC3)n2)cc1,2.42 µM,7.1 µM,2.36 µM,> 100 µM,5.87 µM,> 100 µM,3.29 µM,> 100 µM,3.43 µM,> 100 µM,2.71 µM,14.9 µM,1.23 µM,> 100 µM,,,,,
C[Si](C)(C)/C=C\CCCN1C(=O)CCC1=O,,> 100 µM,,> 100 µM,,,,> 100 µM,,> 100 µM,,> 100 µM,,> 100 µM,> 100 µM,> 100 µM,> 100 µM,,
CC(C)Cc1ccc(C(C)/C=C2\CCC(CN3CCCC3)C2=O)cc1 (centres undefined),,31.8 µM,,19 µM,,,,26.4 µM,,35 µM,,> 100 µM,,12.3 µM,28 µM,26.6 µM,18 µM,,
COC1OC(CBr)C(OC(c2ccccc2)(c2ccccc2)c2ccccc2)C(OC(c2ccccc2)(c2ccccc2)c2ccccc2)C1OC(c1ccccc1)(c1ccccc1)c1ccccc1 (centres undefined),,,,> 100 µM,,> 100 µM,,> 100 µM,,> 100 µM,,> 100 µM,,> 100 µM,> 100 µM,> 100 µM,> 100 µM,,
S=P(c1ccccc1)(c1ccccc1)C1(C2(P(=S)(c3ccccc3)c3ccccc3)CC2)CC1,,> 100 µM,,> 100 µM,,,,> 100 µM,,> 100 µM,,> 100 µM,,> 100 µM,> 100 µM,> 100 µM,> 100 µM,,
O=C(O)CCSC(=O)Nc1cccc([N+](=O)[O-])c1,,> 100 µM,,> 100 µM,,,,> 100 µM,,> 100 µM,,> 100 µM,,64.8 µM,,> 100 µM,> 100 µM,,
Cc1ccc(NC(=O)CC/C(CC(=O)c2ccc(Cl)cc2)=N\NC(=O)C(=O)NN)cc1C,,> 100 µM,,> 100 µM,,,,> 100 µM,,> 100 µM,,> 100 µM,,> 100 µM,> 100 µM,> 100 µM,> 100 µM,,
O=C(COc1ccc(Cl)cc1)N1N=C(c2ccc([N+](=O)[O-])o2)CC1(O)c1ccccc1 (centres undefined),,21 µM,,42 µM,,,,25.8 µM,,28.8 µM,,29.7 µM,,33.4 µM,,6.73 µM,23.6 µM,,
COc1cc([C@@H]2c3cc4c(cc3[C@@H](NCc3ccc(C#N)cc3)C3COC(=O)[C@@H]32)OCO4)cc(OC)c1O (some centres undefined),,6.54 µM,,7.29 µM,,,,> 100 µM,,1.54 µM,,15.9 µM,,6.6 µM,8.37 µM,1.43 µM,3.01 µM,,
Cc1[nH]c2ccccc2c1C1CC(=O)NC1=O (centres undefined),,> 100 µM,,> 100 µM,,,,,,> 100 µM,,> 100 µM,,,> 100 µM,> 100 µM,> 100 µM,,
C/C(=N\NS(=O)(=O)c1ccc(C)cc1)c1c(O)cc(C)oc1=O,,> 100 µM,,> 100 µM,,,,> 100 µM,,> 100 µM,,> 100 µM,,> 100 µM,> 100 µM,> 100 µM,> 100 µM,,
O=C(O)CN(c1ccccc1)S(=O)(=O)c1ccc(Cl)cc1,,> 100 µM,,> 100 µM,,,,> 100 µM,,> 100 µM,,> 100 µM,,> 100 µM,,> 100 µM,> 100 µM,,
NNC(=O)CCC(=O)Nc1ccc(Cl)cc1Cl,,> 100 µM,,> 100 µM,,,,> 100 µM,,> 100 µM,,> 100 µM,,> 100 µM,> 100 µM,> 100 µM,> 100 µM,,
COc1cc2ccc(/C(C)=N/OC(C)=O)cc2cc1OC,,> 100 µM,,> 100 µM,,,,> 100 µM,,> 100 µM,,> 100 µM,,> 100 µM,,> 100 µM,> 100 µM,,
O=S1c2ccccc2N=C(c2ccc(Cl)cc2)CC1c1cccs1 (centres undefined),,,,35.7 µM,,,,45.2 µM,,> 100 µM,,61 µM,,> 100 µM,36.9 µM,85.3 µM,38.4 µM,,
N#CC(C(=O)CCC(=O)Nc1ccc(Cl)cc1)c1ccccc1Cl (centres undefined),,> 100 µM,,> 100 µM,,,,> 100 µM,,> 100 µM,,> 100 µM,,> 100 µM,> 100 µM,> 100 µM,> 100 µM,,
COc1cc2c(=O)n(CCCn3ccnc3)c3c4cc5c(cc4ccc3c2cc1OC)OCO5,8.06 µM,> 83.8 µM,1.16 µM,> 86.6 µM,1.08 µM,> 100 µM,0.496 µM,42.8 µM,1.96 µM,> 100 µM,0.669 µM,> 100 µM,0.448 µM,14.9 µM,,> 100 µM,41.9 µM,0.599 µM,1.46 µM
COc1cc2ccnc3c2c(c1OC)CC1CC(O)C(OC)CC31 (centres undefined),,> 100 µM,,> 100 µM,,,,> 100 µM,,> 100 µM,,> 100 µM,,,> 100 µM,> 100 µM,> 100 µM,,
O=C1NC(=O)C(=O)C(c2nc3ccccc3s2)C1=O,,> 100 µM,,> 100 µM,,,,> 100 µM,,> 100 µM,,,,> 100 µM,> 100 µM,> 100 µM,> 100 µM,,
C[C@]12CC(C#N)C(=O)C(O)=C1CC[C@@H]1C2CC[C@@]2(C)C1CC[C@@H]2O (some centres undefined),,> 100 µM,,63.7 µM,,,,> 100 µM,,> 100 µM,,> 100 µM,,> 100 µM,> 100 µM,> 100 µM,> 100 µM,,
CC(=O)NC1C(OCc2ccccc2)OC(COC(=O)CCCCCNc2ccc([N+](=O)[O-])c3[nH]c4ccc(O)cc4c(=O)c23)C(O)C1OC(C)C(=O)N[C@@H](C)C(=O)N[C@H](CCC(=O)OCc1ccccc1)C(N)=O (some centres undefined),,3.98 µM,,34 µM,,,,19.6 µM,,6.92 µM,,> 100 µM,,9.41 µM,> 20 µM,3.14 µM,10.8 µM,,
